According to PubChem BioAssay AID210 (DTP/NCI, 2004):
“And” between values parts separate entries of the source, which are not always exact repeats. Equal values may be shown once. Toxic doses and inconclusive results are not listed. How the source made its calls: active means survival T/C of 150% or more; inactive means T/C below 125% in these data.

Test system: CD2F1 mice, ip Colon 26 adenocarcinoma, median survival T/C
Test: NCI In Vivo Anticancer Drug Screen. Data for tumor model Colon 26 Adenocarcinoma (intraperitoneal) in CD2F1 (CDF1) mice
Conditions: endpoint: median survival time, higher = longer survival
Procedure: The antitumor activity of compounds was measured in mice bearing transplantable tumors. Survival or tumor size were measured and the results are expressed as the measurement made in the treated group (T) divided by the measurement made in the vehicle treated control group (C). The tumor model used in this assay is Colon 26 Adenocarcinoma (intraperitoneal) in CD2F1 (CDF1) mice

[1] = dose: 12.5 mg/kg/injection, schedule: Q04DX003 (ip), vehicle: Klucel (hydroxypropylcellulose) (HPC)
[2] = dose: 25.0 mg/kg/injection, schedule: Q04DX003 (ip), vehicle: Klucel (hydroxypropylcellulose) (HPC)
[3] = dose: 50.0 mg/kg/injection, schedule: Q04DX003 (ip), vehicle: Klucel (hydroxypropylcellulose) (HPC)
[4] = dose: 100.0 mg/kg/injection, schedule: Q04DX003 (ip), vehicle: Klucel (hydroxypropylcellulose) (HPC)
[5] = dose: 200.0 mg/kg/injection, schedule: Q04DX003 (ip), vehicle: Klucel (hydroxypropylcellulose) (HPC)
[6] = dose: 0.5 mg/kg/injection, schedule: Q04DX003 (ip), vehicle: saline
[7] = dose: 1.0 mg/kg/injection, schedule: Q04DX003 (ip), vehicle: saline
[8] = dose: 8.0 mg/kg/injection, schedule: Q04DX003 (ip), vehicle: saline

Measured: T/C

Cc1ccc(C(=O)[O][Hg][CH2]C2COC([CH2][Hg][O]C(=O)c3ccc(C)cc3)CO2)cc1 (stereo unspecified)
inactive: [1] 104 % of control | [2] 92 % of control

O=S(=O)(O)O
inactive: dose: 30.0 mg/kg/injection, schedule: Q01DX009 (ip), vehicle: saline with Tween-80 100 % of control | dose: 44.0 mg/kg/injection, schedule: Q01DX009 (ip), vehicle: saline with Tween-80 95 % of control | dose: 67.0 mg/kg/injection, schedule: Q01DX009 (ip), vehicle: saline with Tween-80 101 % of control

COC(=O)C(F)C(Br)C(=O)OC (stereo unspecified)
inactive: dose: 6.25 mg/kg/injection, schedule: Q04DX003 (ip), vehicle: saline with Tween-80 102 % of control | dose: 12.5 mg/kg/injection, schedule: Q04DX003 (ip), vehicle: saline with Tween-80 102 % of control | dose: 25.0 mg/kg/injection, schedule: Q04DX003 (ip), vehicle: saline with Tween-80 111 % of control | dose: 50.0 mg/kg/injection, schedule: Q04DX003 (ip), vehicle: saline with Tween-80 114 % of control

CN(C)CCCNc1cccc2c1C(=O)c1c(NCCCN(C)C)cccc1C2=O
inactive: dose: 4.0 mg/kg/injection, schedule: Q01DX009 (ip), vehicle: saline 111 % of control | dose: 8.0 mg/kg/injection, schedule: Q01DX009 (ip), vehicle: saline 97 % of control | dose: 16.0 mg/kg/injection, schedule: Q01DX009 (ip), vehicle: saline 95 % of control | dose: 32.0 mg/kg/injection, schedule: Q01DX009 (ip), vehicle: saline 89 % of control | dose: 64.0 mg/kg/injection, schedule: Q01DX009 (ip), vehicle: saline 87 % of control

O=c1n(CC2CO2)c(=O)n(CC2CO2)c(=O)n1CC1CO1 (stereo unspecified)
active: dose: 25.0 mg/kg/injection, schedule: Q04DX003 (ip), vehicle: saline 237 % of control | dose: 40.0 mg/kg/injection, schedule: Q04DX003 (ip), vehicle: saline 292 % of control | dose: 50.0 mg/kg/injection, schedule: Q04DX003 (ip), vehicle: saline 237 % of control and 292 % of control | dose: 60.0 mg/kg/injection, schedule: Q04DX003 (ip), vehicle: saline 292 % of control | dose: 100.0 mg/kg/injection, schedule: Q04DX003 (ip), vehicle: saline 193 % of control and 237 % of control | dose: 200.0 mg/kg/injection, schedule: Q04DX003 (ip), vehicle: saline 237 % of control and 292 % of control | dose: 300.0 mg/kg/injection, schedule: Q04DX003 (ip), vehicle: saline 292 % of control | dose: 400.0 mg/kg/injection, schedule: Q04DX003 (ip), vehicle: saline 213 % of control and 292 % of control

O=c1oc2cc(N=Cc3ccccc3Cl)ccc2c2ccccc12
inactive: [3] 100 % of control | [4] 97 % of control | [5] 98 % of control | dose: 400.0 mg/kg/injection, schedule: Q04DX003 (ip), vehicle: Klucel (hydroxypropylcellulose) (HPC) 98 % of control

O=C1c2ccccc2C(=O)c2c(NCCNCCNCCO)ccc(NCCNCCNCCO)c21
inactive: dose: 8.0 mg/kg/injection, schedule: Q01DX009 (ip), vehicle: acid diluted with saline 102 % of control | dose: 16.0 mg/kg/injection, schedule: Q01DX009 (ip), vehicle: acid diluted with saline 97 % of control | dose: 32.0 mg/kg/injection, schedule: Q01DX009 (ip), vehicle: acid diluted with saline 107 % of control | dose: 64.0 mg/kg/injection, schedule: Q01DX009 (ip), vehicle: acid diluted with saline 103 % of control | dose: 128.0 mg/kg/injection, schedule: Q01DX009 (ip), vehicle: acid diluted with saline 87 % of control

CCC[CH2][Hg][Cl]
inactive: dose: 3.12 mg/kg/injection, schedule: Q04DX003 (ip), vehicle: Klucel (hydroxypropylcellulose) (HPC) 98 % of control | dose: 6.25 mg/kg/injection, schedule: Q04DX003 (ip), vehicle: Klucel (hydroxypropylcellulose) (HPC) 93 % of control

COc1cccc2c1C(=O)c1c(O)c3c(c(O)c1C2=O)C[C@@](O)(/C(CO)=N/NC(=O)c1ccc(Cl)c(Cl)c1)C[C@@H]3OC1CC(N)C(O)C(C)O1 (stereo partly specified)
inactive: dose: 16.0 mg/kg/injection, schedule: Q07DX002 (iv), vehicle: saline 92 % of control | dose: 24.0 mg/kg/injection, schedule: Q07DX002 (iv), vehicle: saline 109 % of control | dose: 36.0 mg/kg/injection, schedule: Q07DX002 (iv), vehicle: saline 103 % of control

OC(C1CO1)C(O)C1CO1 (stereo unspecified)
inactive: [6] 110 % of control | [7] 109 % of control
active: dose: 7.6 mg/kg/injection, schedule: Q07DX003 (iv), vehicle: saline 165 % of control | [8] 338 % of control | dose: 12.0 mg/kg/injection, schedule: Q07DX003 (iv), vehicle: saline 193 % of control

Cc1cnc(/C=N\NC(N)=S)c2cccc(N)c12
inactive: dose: 25.0 mg/kg/injection, schedule: Q04DX003 (iv), vehicle: other 110 % of control | dose: 42.0 mg/kg/injection, schedule: Q04DX003 (iv), vehicle: other 103 % of control | dose: 68.0 mg/kg/injection, schedule: Q04DX003 (iv), vehicle: other 108 % of control

Cc1c2oc3c(C)c(N)cc(C(=O)NC4C(=O)NC(C(C)C)C(=O)N5CCCC5C(=O)N(C)CC(=O)N(C)C(C(C)C)C(=O)OC4C)c3nc-2c(C(=O)NC2C(=O)NC(C(C)C)C(=O)N3CCCC3C(=O)N(C)CC(=O)N(C)C(C(C)C)C(=O)OC2C)c(N)c1=O (stereo unspecified)
inactive: dose: 500.0 micrograms/kg/injection, schedule: Q01DX001 (ip), vehicle: saline + alcohol 102 % of control | dose: 1000.0 micrograms/kg/injection, schedule: Q01DX001 (ip), vehicle: saline + alcohol 102 % of control

CCC(=O)O[C@H]1CC[C@H]2[C@@H]3CCC4=CC(=O)CC[C@]4(C)[C@H]3CC[C@]12C
inactive: dose: 80.0 mg/kg/injection, schedule: Q04DX003 (ip), vehicle: saline 87 % of control | dose: 160.0 mg/kg/injection, schedule: Q04DX003 (ip), vehicle: saline 96 % of control | dose: 640.0 mg/kg/injection, schedule: Q04DX003 (ip), vehicle: saline 86 % of control

C[C@@]1(CO)[C@@H](O)CC[C@@]2(C)[C@H]1CC[C@H]1C[C@@H]3CC12CC[C@]3(O)CO
inactive: dose: 12.5 mg/kg/injection, schedule: Q04DX002 (ip), vehicle: distilled water + Tween-80 103 % of control | dose: 25.0 mg/kg/injection, schedule: Q04DX002 (ip), vehicle: distilled water + Tween-80 109 % of control | dose: 50.0 mg/kg/injection, schedule: Q04DX002 (ip), vehicle: distilled water + Tween-80 95 % of control | dose: 100.0 mg/kg/injection, schedule: Q04DX002 (ip), vehicle: distilled water + Tween-80 109 % of control | dose: 200.0 mg/kg/injection, schedule: Q04DX002 (ip), vehicle: distilled water + Tween-80 91 % of control | dose: 400.0 mg/kg/injection, schedule: Q04DX002 (ip), vehicle: distilled water + Tween-80 116 % of control

CO[C@H](C(=O)[C@@H](O)[C@@H](C)O)[C@@H]1Cc2cc3cc(OC4CC(OC5CC(O)C(O)C(C)O5)C(O)C(C)O4)c(C)c(O)c3c(O)c2C(=O)[C@H]1OC1CC(OC2CC(OC3CC(C)(O)C(O)C(C)O3)C(O)C(C)O2)C(O)C(C)O1 (stereo partly specified)
inactive: dose: 0.25 mg/kg/injection, schedule: Q04DX003 (ip), vehicle: saline 96 % of control | [6] 98 % of control | [7] 98 % of control | dose: 2.0 mg/kg/injection, schedule: Q04DX003 (ip), vehicle: saline 100 % of control

Nc1ccc2nc3ccc(N)cc3[n+](-c3ccccc3)c2c1
inactive: dose: 4.0 mg/kg/injection, schedule: Q04DX003 (ip), vehicle: saline 121 % of control | [8] 120 % of control | dose: 16.0 mg/kg/injection, schedule: Q04DX003 (ip), vehicle: saline 120 % of control

CN(Cc1cnc2nc(N)nc(N)c2n1)c1c(Cl)cc(C(=O)NC(CCC(=O)O)C(=O)O)cc1Cl (stereo unspecified)
inactive: [1] 105 % of control | [2] 102 % of control | [3] 104 % of control | [4] 104 % of control | [5] 118 % of control

Clc1ccc(C2SC=Cc3ccccc32)cc1 (stereo unspecified)
inactive: dose: 3.12 mg/kg/injection, schedule: Q04DX002 (ip), vehicle: Klucel (hydroxypropylcellulose) (HPC) 105 % of control | [2] 99 % of control | [3] 103 % of control | dose: 62.5 mg/kg/injection, schedule: Q04DX002 (ip), vehicle: Klucel (hydroxypropylcellulose) (HPC) 100 % of control | [4] 97 % of control | dose: 125.0 mg/kg/injection, schedule: Q04DX002 (ip), vehicle: Klucel (hydroxypropylcellulose) (HPC) 98 % of control | [5] 105 % of control | dose: 250.0 mg/kg/injection, schedule: Q04DX002 (ip), vehicle: Klucel (hydroxypropylcellulose) (HPC) 96 % of control | dose: 500.0 mg/kg/injection, schedule: Q04DX002 (ip), vehicle: Klucel (hydroxypropylcellulose) (HPC) 100 % of control
